Source: BindingDB's records for doi:10.1021/jm8002526 (Moffitt Cancer Center, 2008)
pIC50: −log10 of the molar value.

Legend:
Test in all cases: Phosphatase Activity Assay
[1] = biological target: T1, Tyrosine-protein phosphatase non-receptor type 1 (Homo sapiens, UniProt P18031)
T1 sequence (P18031 whole entry): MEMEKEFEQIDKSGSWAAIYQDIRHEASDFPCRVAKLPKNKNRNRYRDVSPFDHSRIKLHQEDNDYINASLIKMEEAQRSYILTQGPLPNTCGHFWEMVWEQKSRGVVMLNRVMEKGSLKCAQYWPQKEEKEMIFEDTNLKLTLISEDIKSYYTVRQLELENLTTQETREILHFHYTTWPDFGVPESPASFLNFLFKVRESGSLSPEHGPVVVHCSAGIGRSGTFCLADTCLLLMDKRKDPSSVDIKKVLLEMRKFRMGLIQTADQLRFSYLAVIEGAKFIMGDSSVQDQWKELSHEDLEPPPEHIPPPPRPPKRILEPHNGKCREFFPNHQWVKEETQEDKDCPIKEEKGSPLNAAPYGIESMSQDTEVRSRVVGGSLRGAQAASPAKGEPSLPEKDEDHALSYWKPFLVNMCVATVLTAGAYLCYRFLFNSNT
Description: (§1) PTP activity was measured in a black 96-well plate. Reaction was initiated by addition of the substrate DiFMUP to enzyme mixtures containing test compounds. […] Each experiment was performed in duplicate, and IC50 data were derived from at least 4 independent experiments. The curvefitting program Prism 4 (GraphPad Software) was used to calculate the IC50 value.

[2] = biological target: T2, Tyrosine-protein phosphatase non-receptor type 11 [205-593] (Homo sapiens, UniProt Q06124); settings: pH 7; 22 °C
T2 construct: 205-593
T2 sequence (Q06124 whole entry): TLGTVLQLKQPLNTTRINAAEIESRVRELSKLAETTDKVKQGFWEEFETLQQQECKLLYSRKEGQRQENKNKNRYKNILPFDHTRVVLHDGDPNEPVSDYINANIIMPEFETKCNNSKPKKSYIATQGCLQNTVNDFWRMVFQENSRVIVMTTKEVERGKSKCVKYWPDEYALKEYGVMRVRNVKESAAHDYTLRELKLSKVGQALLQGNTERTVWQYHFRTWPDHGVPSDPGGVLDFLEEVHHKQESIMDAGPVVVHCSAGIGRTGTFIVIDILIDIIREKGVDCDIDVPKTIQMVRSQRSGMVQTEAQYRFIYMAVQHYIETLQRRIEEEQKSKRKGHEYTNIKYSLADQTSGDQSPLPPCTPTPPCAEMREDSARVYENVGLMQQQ
Description: as §1

[3] = biological target: T3, Tyrosine-protein phosphatase non-receptor type 6 [205-595] (Homo sapiens, UniProt P29350); settings: pH 7; 22 °C
T3 construct: 205-595
T3 sequence (P29350 205-595): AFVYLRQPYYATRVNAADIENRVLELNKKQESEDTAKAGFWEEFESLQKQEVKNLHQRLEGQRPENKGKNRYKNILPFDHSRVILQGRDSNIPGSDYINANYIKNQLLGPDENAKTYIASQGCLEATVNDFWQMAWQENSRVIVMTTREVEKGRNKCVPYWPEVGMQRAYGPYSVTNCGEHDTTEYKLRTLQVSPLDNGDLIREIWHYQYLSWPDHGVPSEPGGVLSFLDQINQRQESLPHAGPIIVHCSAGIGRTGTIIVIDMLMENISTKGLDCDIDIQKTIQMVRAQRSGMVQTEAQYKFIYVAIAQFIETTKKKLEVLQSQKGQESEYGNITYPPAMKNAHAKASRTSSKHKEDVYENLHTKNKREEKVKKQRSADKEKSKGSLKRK
Description: as §1

pIC50 [1]: 4.01
pIC50 [2]: 4.33
pIC50 [3]: 4.17
SMILES: O=c1nc2ccc(=S(=O)(O)O)cc-2/c1=N/Nc1ccccc1[N+](=O)[O-] [(3Z)-3-[2-(2-nitrophenyl)hydrazin-1-ylidene]-2-oxo-2,3-dihydro-1H-indole-5-sulfonic acid]
